Source: ChEMBL document CHEMBL5120812, “Cytotoxic Nitrobenzoyl Sesquiterpenoids from an Antarctica Sponge-Derived Aspergillus insulicola” (J Nat Prod, 2022)
pIC50: −log10 of the molar value. Active and inactive are the calls of the source. The rule behind the calls is not given here.

Experiments:
ASPC1 [1] = assay: Induction of apoptosis in human ASPC1 cells assessed as viable cells at 5 uM incubated for 24 hrs by annexinV-FITC and PI staining based flow cytometry analysis (reference value: 96.0 %); type: functional; details: read-out: Activity
ASPC1 [2] = assay: Induction of apoptosis in human ASPC1 cells assessed as necrotic cells at 2.50 uM incubated for 24 hrs by annexinV-FITC and PI staining based flow cytometry analysis (reference value: 0.27 %); type: functional; details: dose 2.5 µM
ASPC1 [3] = assay: Induction of apoptosis in human ASPC1 cells assessed as early apoptotic cells at 1.25 uM incubated for 24 hrs by annexinV-FITC and PI staining based flow cytometry analysis (reference value: 1.56 %); type: functional
PANC-1 [4] = assay: Induction of apoptosis in human PANC-1 cells assessed as late apototic cells at 2.50 uM incubated for 24 hrs by annexinV-FITC and PI staining based flow cytometry analysis (reference value: 5.71 %); type: functional; details: dose 2.5 µM
PANC-1 [5] = assay: Induction of apoptosis in human PANC-1 cells assessed as necrotic cells at 5 uM incubated for 24 hrs by annexinV-FITC and PI staining based flow cytometry analysis (reference value: 0.14 %); type: functional
PANC-1 [6] = assay: Induction of apoptosis in human PANC-1 cells assessed as suppression of XIAP expression at upto 5 uM incubated for 24 hrs by Western blot analysis; type: functional, cell-based
PANC-1 [7] = assay: Induction of apoptosis in human PANC-1 cells assessed as late apototic cells at 1.25 uM incubated for 24 hrs by annexinV-FITC and PI staining based flow cytometry analysis (reference value: 5.71 %); type: functional
ASPC1 [8] = assay: Induction of apoptosis in human ASPC1 cells assessed as viable cells at 2.50 uM incubated for 24 hrs by annexinV-FITC and PI staining based flow cytometry analysis (reference value: 96.0 %); type: functional; details: read-out: Activity
PANC-1 [9] = assay: Induction of apoptosis in human PANC-1 cells assessed as early apototic cells at 1.25 uM incubated for 24 hrs by annexinV-FITC and PI staining based flow cytometry analysis (reference value: 4.66 %); type: functional
ASPC1 [10] = assay: Cytotoxicity against human ASPC1 cells assessed as inhibition of cell proliferation incubated for 24 to 72 hrs by SRB assay; type: functional, cell-based; details: dose 0.94-30 µM, time 24-72 hrs, DDE = dose-dependent effect
ASPC1 [11] = assay: Downregulation of survivin level in human ASPC1 cells upto 5 uM incubated for 24 hrs by Western blot analysis; type: functional, cell-based
PANC-1 [12] = assay: Downregulation of Bcl-2 level in human PANC-1 cells upto 5 uM incubated for 24 hrs by Western blot analysis; type: functional, cell-based
BXPC-3 = assay: Cytotoxicity against human BXPC-3 cells assessed as inhibition of cell growth incubated for 72 hrs by SRB assay; type: functional, cell-based; details: BXPC-3, 72 h
[13] = biological target: Epidermal growth factor receptor (Homo sapiens) (UniProt P00533); assay: Inhibition of EGFR downstream signalling in human PANC-1 cells assessed as reduction of STAT3 phosphorylation upto 5 uM incubated for 24 hrs by Western blot analysis; type: cell-based
Sequence of Epidermal growth factor receptor (Homo sapiens) (P00533 whole entry): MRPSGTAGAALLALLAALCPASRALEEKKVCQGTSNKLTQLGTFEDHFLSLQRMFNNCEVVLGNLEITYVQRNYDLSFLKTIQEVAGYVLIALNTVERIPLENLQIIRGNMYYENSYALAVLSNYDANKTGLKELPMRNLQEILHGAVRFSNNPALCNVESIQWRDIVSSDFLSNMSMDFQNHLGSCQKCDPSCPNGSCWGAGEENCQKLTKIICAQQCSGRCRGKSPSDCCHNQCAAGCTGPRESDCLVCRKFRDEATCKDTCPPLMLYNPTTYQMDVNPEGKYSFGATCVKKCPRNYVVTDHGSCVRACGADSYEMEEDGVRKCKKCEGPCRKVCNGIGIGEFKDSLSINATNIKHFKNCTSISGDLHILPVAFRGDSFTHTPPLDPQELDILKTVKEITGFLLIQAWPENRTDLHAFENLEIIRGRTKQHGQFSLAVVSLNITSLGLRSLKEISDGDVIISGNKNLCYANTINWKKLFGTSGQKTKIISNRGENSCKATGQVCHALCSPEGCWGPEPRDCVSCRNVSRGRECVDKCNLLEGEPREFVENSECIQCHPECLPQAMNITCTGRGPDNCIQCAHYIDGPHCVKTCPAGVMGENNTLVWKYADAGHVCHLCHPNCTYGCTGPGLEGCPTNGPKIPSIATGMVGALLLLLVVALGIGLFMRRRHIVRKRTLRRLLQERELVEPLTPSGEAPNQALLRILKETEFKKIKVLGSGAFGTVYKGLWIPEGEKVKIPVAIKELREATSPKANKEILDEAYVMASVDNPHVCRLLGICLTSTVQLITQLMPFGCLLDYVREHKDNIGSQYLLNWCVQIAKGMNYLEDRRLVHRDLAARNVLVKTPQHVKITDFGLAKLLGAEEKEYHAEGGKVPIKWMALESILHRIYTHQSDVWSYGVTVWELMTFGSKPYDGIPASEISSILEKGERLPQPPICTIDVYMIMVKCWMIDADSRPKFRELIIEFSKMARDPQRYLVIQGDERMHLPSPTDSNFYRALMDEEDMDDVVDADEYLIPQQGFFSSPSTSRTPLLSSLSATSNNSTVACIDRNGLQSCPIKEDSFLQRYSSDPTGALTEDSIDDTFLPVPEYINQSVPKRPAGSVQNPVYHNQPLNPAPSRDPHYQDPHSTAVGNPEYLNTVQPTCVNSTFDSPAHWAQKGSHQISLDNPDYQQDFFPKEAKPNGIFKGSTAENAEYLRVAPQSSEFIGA

[14] = biological target: Epidermal growth factor receptor (Homo sapiens) (UniProt P00533); assay: Inhibition of EGFR downstream signalling in human ASPC1 cells assessed as reduction of Akt phosphorylation upto 5 uM incubated for 24 hrs by Western blot analysis; type: cell-based
PANC-1 [15] = assay: Cytotoxicity against human PANC-1 cells assessed as inhibition of cell growth incubated for 72 hrs by SRB assay; type: functional, cell-based; details: PANC-1, 72 h
ASPC1 [16] = assay: Induction of apoptosis in human ASPC1 cells assessed as late apoptotic cells at 5 uM incubated for 24 hrs by annexinV-FITC and PI staining based flow cytometry analysis (reference value: 2.18 %); type: functional
ASPC1 [17] = assay: Induction of apoptosis in human ASPC1 cells assessed as necrotic cells at 1.25 uM incubated for 24 hrs by annexinV-FITC and PI staining based flow cytometry analysis (reference value: 0.27 %); type: functional
ASPC1 [18] = assay: Induction of apoptosis in human ASPC1 cells assessed as increase in PARP level incubated for 24 hrs by Western blot analysis; type: functional, cell-based; details: dose 1.25-5 µM, DDE = dose-dependent effect
PANC-1 [19] = assay: Induction of apoptosis in human PANC-1 cells assessed as increase in cleaved caspase 9 level incubated for 24 hrs by Western blot analysis; type: functional, cell-based; details: dose 1.25-5 µM, DDE = dose-dependent effect
PANC-1 [20] = assay: Induction of apoptosis in human PANC-1 cells assessed as increase in caspase 3 enzymatic activity upto 5 uM incubated for 24 hrs by Western blot analysis; type: functional, cell-based
ASPC1 [21] = assay: Cytotoxicity against human ASPC1 cells assessed as reduction in cell viability at 5 uM incubated for 24 hrs in presence of gemcitabine by SRB assay; type: functional, cell-based
PANC-1 [22] = assay: Induction of apoptosis in human PANC-1 cells assessed as increase in cleaved caspase 3 level incubated for 24 hrs by Western blot analysis; type: functional, cell-based; details: dose 1.25-5 µM, DDE = dose-dependent effect
ASPC1 [23] = assay: Induction of apoptosis in human ASPC1 cells assessed as increase in cleaved caspase 9 level incubated for 24 hrs by Western blot analysis; type: functional, cell-based; details: dose 1.25-5 µM, DDE = dose-dependent effect
PANC-1 [24] = assay: Induction of apoptosis in human PANC-1 cells assessed as necrotic cells at 1.25 uM incubated for 24 hrs by annexinV-FITC and PI staining based flow cytometry analysis (reference value: 0.14 %); type: functional
PANC-1 [25] = assay: Induction of apoptosis in human PANC-1 cells assessed as late apototic cells at 5 uM incubated for 24 hrs by annexinV-FITC and PI staining based flow cytometry analysis (reference value: 5.71 %); type: functional
PANC-1 [26] = assay: Antiinvasive activity in human PANC-1 cells assessed as decrease in cell invasion at 0.94 to 3.75 uM incubated for 24 hrs by crystal violet staining based transwell assay; type: functional; details: dose 0.94-3.75 µM
[27] = biological target: Epidermal growth factor receptor (Homo sapiens) (UniProt P00533); assay: Inhibition of EGFR expression in human ASPC1 cells upto 5 uM incubated for 24 hrs by Western blot analysis; type: cell-based
MDA-MB-231 = assay: Cytotoxicity against human MDA-MB-231 cells assessed as inhibition of cell growth incubated for 72 hrs by SRB assay; type: functional, cell-based; details: MDA-MB-231, 72 h
PANC-1 [28] = assay: Cytotoxicity against human PANC-1 cells assessed as reduction in cell viability at 5 uM incubated for 24 hrs in presence of gemcitabine by SRB assay; type: functional, cell-based
ASPC1 [29] = assay: Induction of apoptosis in human ASPC1 cells assessed as increase in cleaved caspase 3 level incubated for 24 hrs by Western blot analysis; type: functional, cell-based; details: dose 1.25-5 µM, DDE = dose-dependent effect

COC(=O)CCCCCCC/C=C/C(=O)OC[C@@]1(C)CCC[C@@]2(C)[C@H]1[C@H](OC(=O)c1ccc([N+](=O)[O-])cc1)C=C1C(=O)OC[C@@]12O
viability at 5 µM (ASPC1 [1]): 85.1% | Activity (ASPC1 [2]): 0.38% | Activity (ASPC1 [3]): 5.77% | Activity (PANC-1 [4]): 13.6% | Activity (PANC-1 [5]): 0.11% | Activity (PANC-1 [6]): Active | Activity (PANC-1 [7]): 3.09% | viability at 2.5 µM (ASPC1 [8]): 87.7% | Activity (PANC-1 [9]): 5.99% | Activity (ASPC1 [10]): Dde | Activity (ASPC1 [11]): Active | Activity (PANC-1 [12]): Active | pIC50 (BXPC-3): 5.31 | inhibition [13]: Active | inhibition [14]: Active | pIC50 (PANC-1 [15]): 5.38 | Activity (ASPC1 [16]): 10.1% | Activity (ASPC1 [17]): 0.2% | Activity (ASPC1 [18]): Dde | Activity (PANC-1 [19]): Dde | Activity (PANC-1 [20]): Active | Activity (ASPC1 [21]): Active | Activity (PANC-1 [22]): Dde | Activity (ASPC1 [23]): Dde | Activity (PANC-1 [24]): 0.22% | Activity (PANC-1 [25]): 23.1% | Activity (PANC-1 [26]): Active | inhibition [27]: Active | pIC50 (MDA-MB-231): 4.64 | Activity (PANC-1 [28]): Active | Activity (ASPC1 [29]): Dde
